Data taken from US6914045B2, “Glycopeptide antibiotics” (Wyeth Holdings Corporation, priority 2001, dated 2005).
Converted amounts (≈) assume the structure as drawn.

Legend:
Assay in all cases: in vitro antibacterial evaluation, MIC by broth dilution
Assay type in all cases: cell-based
Streptococcus sp. = details: broth dilution, 18 hours at 35° C.
Procedure, shortened: (§1)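 Test organisms, which included recent clinical isolates resistant to methicillin, penicillin and/or vancomycin, were inoculated at 5×10^5 CFU/mL into Muller-Hinton II […] containing antibiotic at 64-0.06 μg/mL. Minimum inhibitory concentrations were then read as the lowest level inhibiting growth.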

Staphylococcus sp. = details: broth dilution, 18 hours at 35° C.; for MIC Staphylococcus aureus (GC 1131): strain GC 1131
Procedure, shortened: as §1

Enterococcus sp. = details: broth dilution, 18 hours at 35° C.
Procedure, shortened: as §1

Escherichia coli = details: 18 hours at 35° C.

- MIC Streptococcus agalactiae (GC 4564) (Streptococcus sp.): <0.06 µg/mL
- MIC Streptococcus pneumoniae (ATCC 6301) (Streptococcus sp.): <0.06 µg/mL
- MIC Streptococcus pneumoniae (GC 1894) (Streptococcus sp.): <0.06 µg/mL
- MIC Streptococcus pneumoniae (GC 4565) (Streptococcus sp.): <0.06 µg/mL
- MIC Streptococcus pyogenes (GC 4563) (Streptococcus sp.): 0.25 µg/mL (≈ 0.155 µM)
- MIC Streptococcus pneumoniae (ATCC 6301) (Streptococcus sp.; inoculum 5×10^5 CFU/mL, strain ATCC 6301): <0.06 µg/mL
- MIC Streptococcus pneumoniae (GC 1894) (Streptococcus sp.; inoculum 5×10^5 CFU/mL, strain GC 1894): <0.06 µg/mL
- MIC Streptococcus pyogenes (GC 4563) (Streptococcus sp.; inoculum 5×10^5 CFU/mL, strain GC 4563): 0.25 µg/mL (≈ 0.155 µM)
- MIC Streptococcus agalactiae (GC 4564) (Streptococcus sp.; inoculum 5×10^5 CFU/mL, strain GC 4564): <0.06 µg/mL
- MIC Streptococcus pneumoniae (GC 4565) (Streptococcus sp.; inoculum 5×10^5 CFU/mL, strain GC 4565): <0.06 µg/mL
- MIC Staphylococcus aureus (GC 1131) (Staphylococcus sp.; inoculum 5×10^5 CFU/mL): 2 µg/mL (≈ 1.24 µM)
- MIC Staphylococcus aureus (ATCC 29213) (Staphylococcus sp.; strain ATCC 29213): 2 µg/mL (≈ 1.24 µM)
- MIC Staphylococcus aureus (GC 1131) (Staphylococcus sp.): 2 µg/mL (≈ 1.24 µM)
- MIC Staphylococcus aureus (GC 3051) (Staphylococcus sp.; strain GC 3051): 2 µg/mL (≈ 1.24 µM)
- MIC Staphylococcus aureus (GC 3053) (Staphylococcus sp.; strain GC 3053): 2 µg/mL (≈ 1.24 µM)
- MIC Staphylococcus aureus (GC 4541) (Staphylococcus sp.; strain GC 4541): 2 µg/mL (≈ 1.24 µM)
- MIC Staphylococcus aureus (GC 4542) (Staphylococcus sp.; strain GC 4542): 1 µg/mL (≈ 0.62 µM)
- MIC Staphylococcus aureus-SMITH (GC 4543) (Staphylococcus sp.; strain GC 4543): 2 µg/mL (≈ 1.24 µM)
- MIC Staphylococcus aureus (GC 4544) (Staphylococcus sp.; strain GC 4544): 2 µg/mL (≈ 1.24 µM)
- MIC Staphylococcus aureus (GC 4545) (Staphylococcus sp.; strain GC 4545): 2 µg/mL (≈ 1.24 µM)
- MIC Coagulase Negative Staphylococcus (GC 4547) (Staphylococcus sp.; strain GC 4547): 2 µg/mL (≈ 1.24 µM)
- MIC Coagulase Negative Staphylococcus (GC 4548) (Staphylococcus sp.; strain GC 4548): 1 µg/mL (≈ 0.62 µM)
- MIC Coagulase Negative Staphylococcus (GC 4549) (Staphylococcus sp.; strain GC 4549): 1 µg/mL (≈ 0.62 µM)
- MIC Coagulase Negative Staphylococcus (GC 4551) (Staphylococcus sp.; strain GC 4551): 2 µg/mL (≈ 1.24 µM)
- MIC Coagulase Negative Staphylococcus (GC 6257) (Staphylococcus sp.; strain GC 6257): 0.5 µg/mL (≈ 0.31 µM)
- MIC Enterococcus avium (GC 4558) (Enterococcus sp.): 2 µg/mL (≈ 1.24 µM)
- MIC Enterococcus faecalis (ATCC 29212) (Enterococcus sp.): 2 µg/mL (≈ 1.24 µM)
- MIC Enterococcus faecalis (GC 2242) (Enterococcus sp.): 2 µg/mL (≈ 1.24 µM)
- MIC Enterococcus faecalis (GC 2691) (Enterococcus sp.): 2 µg/mL (≈ 1.24 µM)
- MIC Enterococcus faecalis (GC 3059) (Enterococcus sp.): 2 µg/mL (≈ 1.24 µM)
- MIC Enterococcus faecalis (GC 4552) (Enterococcus sp.): 2 µg/mL (≈ 1.24 µM)
- MIC Enterococcus faecalis (GC 4553) (Enterococcus sp.): 2 µg/mL (≈ 1.24 µM)
- MIC Enterococcus faecalis (GC 4554) (Enterococcus sp.): 2 µg/mL (≈ 1.24 µM)
- MIC Enterococcus faecalis (GC 6189) (Enterococcus sp.): 1 µg/mL (≈ 0.62 µM)
- MIC Enterococcus faecium (GC 2243) (Enterococcus sp.): 2 µg/mL (≈ 1.24 µM)
- MIC Enterococcus faecium (GC 4556) (Enterococcus sp.): 2 µg/mL (≈ 1.24 µM)
- MIC Enterococcus faecium (GC 4557) (Enterococcus sp.): 2 µg/mL (≈ 1.24 µM)
- MIC Enterococcus faecalis (ATCC 29212) (Enterococcus sp.; inoculum 5×10^5 CFU/mL, strain ATCC 29212): 2 µg/mL (≈ 1.24 µM)
- MIC Enterococcus faecalis (GC 2242) (Enterococcus sp.; inoculum 5×10^5 CFU/mL, strain GC 2242): 2 µg/mL (≈ 1.24 µM)
- MIC Enterococcus faecium (GC 2243) (Enterococcus sp.; inoculum 5×10^5 CFU/mL, strain GC 2243): 2 µg/mL (≈ 1.24 µM)
- MIC Enterococcus faecalis (GC 2691) (Enterococcus sp.; inoculum 5×10^5 CFU/mL, strain GC 2691): 2 µg/mL (≈ 1.24 µM)
- MIC Enterococcus faecalis (GC 3059) (Enterococcus sp.; inoculum 5×10^5 CFU/mL, strain GC 3059): 2 µg/mL (≈ 1.24 µM)
- MIC Enterococcus faecalis (GC 4552) (Enterococcus sp.; inoculum 5×10^5 CFU/mL, strain GC 4552): 2 µg/mL (≈ 1.24 µM)
- MIC Enterococcus faecalis (GC 4553) (Enterococcus sp.; inoculum 5×10^5 CFU/mL, strain GC 4553): 2 µg/mL (≈ 1.24 µM)
- MIC Enterococcus faecalis (GC 4554) (Enterococcus sp.; inoculum 5×10^5 CFU/mL, strain GC 4554): 2 µg/mL (≈ 1.24 µM)
- MIC Enterococcus faecium (GC 4556) (Enterococcus sp.; inoculum 5×10^5 CFU/mL, strain GC 4556): 2 µg/mL (≈ 1.24 µM)
- MIC Enterococcus faecium (GC 4557) (Enterococcus sp.; inoculum 5×10^5 CFU/mL, strain GC 4557): 2 µg/mL (≈ 1.24 µM)
- MIC Enterococcus avium (GC 4558) (Enterococcus sp.; inoculum 5×10^5 CFU/mL, strain GC 4558): 2 µg/mL (≈ 1.24 µM)
- MIC Enterococcus faecalis (GC 6189) (Enterococcus sp.; inoculum 5×10^5 CFU/mL, strain GC 6189): 1 µg/mL (≈ 0.62 µM)
- MIC Escherichia coli (ATCC 25922) (Escherichia coli): 64 µg/mL (≈ 39.7 µM)
- MIC Escherichia coli (GC 4559) (Escherichia coli): 64 µg/mL (≈ 39.7 µM)
- MIC Escherichia coli (GC 4560) (Escherichia coli): 4 µg/mL (≈ 2.48 µM)
Structure (SMILES): CC(c1ccccc1)C1NC(=O)CNC(=O)C(CO)NC(=O)C(C(O)C2CNC(=N)N2C2OC(CO)C(O)C(O)C2O)NC(=O)C(C(O)C2CNC(=N)N2)NC(=O)C(Cc2ccc(OC3OC(CO)C(OC4OC5COC(c6ccc(C(=O)c7ccc(I)cc7)cc6)OC5C(O)C4O)C(O)C3O)cc2)NC1=O (centres unmarked) [Example 186]
- MIC Staphylococcus haemolyticus (GC 4546) (Staphylococcus sp.; strain GC 4546): 1 µg/mL (≈ 0.62 µM)
